# In patent US10681909B2, “Herbicidal triazoles” (FMC Corporation, priority 2014, dated 2020):
# Assays:
# velvetleaf [1] = experiment: Test C preemergence; assay type: in vivo, Abutilon theophrasti; details: for Velvetleaf plant response rating (0 to 100): Preemergence, visual rating after 13 to 15 d; for Plant response rating (scale of 0 to 100 where 0 is no effect and 100 is complete control): Velvetleaf, preemergence, 250 g ai/ha
# Procedure, shortened: (§1)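 Pre: seeded into loam/sand, sprayed same time. Post: plants in peat moss–vermiculite mix with starter nutrients and dolomitic limestone, treated at 1- to 4-leaf stage (2 to 18 cm). Formulation: non-phytotoxic solvent blend plus surfactant.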
# ragweed = experiment: Test C postemergence; assay type: in vivo, Ambrosia elatior
# Procedure, shortened: as §1
# corn = experiment: Test A postemergence; assay type: in vivo, Zea mays; details: 0 to 100 scale (0 no effect, 100 complete control), approx. 10 d
# Procedure, shortened: (§2)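 For preemergence, seeds were sown in a loam soil-sand blend and given a directed soil spray of test chemical in a non-phytotoxic solvent mixture with surfactant. For postemergence, plants in pots of the same blend were sprayed with the same formulation at the one- to two-leaf stage, 2 to 10 cm tall.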
# barnyardgrass [2] = experiment: Test A postemergence; assay type: in vivo, Echinochloa crus-galli; details: 0 to 100 scale (0 no effect, 100 complete control), approx. 10 d
# Procedure, shortened: as §2
# kochia = experiment: Test C postemergence; assay type: in vivo, Kochia scoparia
# Procedure, shortened: as §1
# velvetleaf [3] = experiment: Test C postemergence; assay type: in vivo, Abutilon theophrasti
# Procedure, shortened: as §1
# rice = experiment: Test B flooded paddy test; assay type: in vivo, Oryza sativa; details: applied to paddy water at 2-leaf stage, visual rating after 13 to 15 d, scale 0 (no effect) to 100 (complete control)
# Procedure, shortened: (§3)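 Pots were flooded to 3 cm above the soil at treatment, and compounds were applied directly into the paddy water. That depth was held throughout. After 13 to 15 d in a greenhouse, plants were rated visually against untreated controls.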
# morningglory = experiment: Test C postemergence; assay type: in vivo, Ipomoea coccinea
# Procedure, shortened: as §1
# barnyardgrass [4] = experiment: Test A preemergence; assay type: in vivo, Echinochloa crus-galli; details: 0 to 100 scale (0 no effect, 100 complete control)
# Procedure, shortened: as §2
# foxtail, giant = experiment: Test A preemergence; assay type: in vivo, Setaria faberii; details: 0 to 100 scale (0 no effect, 100 complete control)
# Procedure, shortened: as §2
# crabgrass, large = experiment: Test C postemergence; assay type: in vivo, Digitaria sanguinalis
# Procedure, shortened: as §1
# pigweed = experiment: Test C postemergence; assay type: in vivo, Amaranthus retroflexus
# Procedure, shortened: as §1
# ducksalad = experiment: Test B flooded paddy test; assay type: in vivo, Heteranthera limosa; details: applied to paddy water at 2-leaf stage, visual rating after 13 to 15 d, scale 0 (no effect) to 100 (complete control)
# Procedure, shortened: as §3
# johnsongrass = experiment: Test C postemergence; assay type: in vivo, Sorghum halepense
# Procedure, shortened: as §1
structure (smiles),measurement,setting,value
"COc1nc(-c2ccc(F)cc2)nn1Cc1ccnc(C(F)(F)F)c1 [Compound 9, 4-[[3-(4-fluorophenyl)-5-methoxy-1H-1,2,4-triazol-1-yl]methyl]-2-(trifluoromethyl)pyridine]",Velvetleaf plant response rating (0 to 100),velvetleaf [1]; 31 g ai/ha,20
same,Velvetleaf plant response rating (0 to 100),velvetleaf [1]; 62 g ai/ha,25
same,Plant response rating (scale of 0 to 100 where 0 is no effect and 100 is complete control),velvetleaf [1],60
same,Plant response rating (scale of 0 to 100 where 0 is no effect and 100 is complete control),ragweed; 16 g ai/ha,15
same,Plant response rating (scale of 0 to 100 where 0 is no effect and 100 is complete control),ragweed; 31 g ai/ha,25
same,Plant response rating (scale of 0 to 100 where 0 is no effect and 100 is complete control),ragweed; 62 g ai/ha,25
same,Plant response rating (scale of 0 to 100 where 0 is no effect and 100 is complete control),ragweed; 125 g ai/ha,50
same,"Corn plant response rating (crop injury, 0 = no effect, 100 = complete kill) at 125 g/ha","corn; Zea mays, post-emergence, 240 h, 125 g ai/ha",40%
same,"Corn plant response rating (crop injury, 0 = no effect, 100 = complete kill) at 500 g/ha","corn; Zea mays, post-emergence, 240 h, 500 g ai/ha",80%
same,pest or weed control at 125 g/ha,"barnyardgrass [2]; Echinochloa crus-galli, post-emergence, 240 h, 125 g ai/ha, read-out: Plant response rating, Barnyardgrass",70%
same,pest or weed control at 500 g/ha,"barnyardgrass [2]; Echinochloa crus-galli, post-emergence, 240 h, 500 g ai/ha, read-out: Plant response rating, Barnyardgrass",90%
same,Plant response rating (scale of 0 to 100 where 0 is no effect and 100 is complete control),kochia; 16 g ai/ha,95
same,Plant response rating (scale of 0 to 100 where 0 is no effect and 100 is complete control),kochia; 31 g ai/ha,90
same,Plant response rating (scale of 0 to 100 where 0 is no effect and 100 is complete control),kochia; 62 g ai/ha,90
same,Plant response rating (scale of 0 to 100 where 0 is no effect and 100 is complete control),kochia; 125 g ai/ha,90
same,Plant response rating (scale of 0 to 100 where 0 is no effect and 100 is complete control),velvetleaf [3]; 16 g ai/ha,25
same,Plant response rating (scale of 0 to 100 where 0 is no effect and 100 is complete control),velvetleaf [3]; 31 g ai/ha,35
same,Plant response rating (scale of 0 to 100 where 0 is no effect and 100 is complete control),velvetleaf [3]; 62 g ai/ha,35
same,Plant response rating (scale of 0 to 100 where 0 is no effect and 100 is complete control),velvetleaf [3]; 125 g ai/ha,35
same,plant injury at 125 g/ha,"rice; Oryza sativa, 360 h, 125 g ai/ha, read-out: Plant response rating, Rice, Flood",0%
same,Plant response rating (scale of 0 to 100 where 0 is no effect and 100 is complete control),morningglory; 16 g ai/ha,70
same,Plant response rating (scale of 0 to 100 where 0 is no effect and 100 is complete control),morningglory; 31 g ai/ha,85
same,Plant response rating (scale of 0 to 100 where 0 is no effect and 100 is complete control),morningglory; 62 g ai/ha,80
same,Plant response rating (scale of 0 to 100 where 0 is no effect and 100 is complete control),morningglory; 125 g ai/ha,75
same,pest or weed control at 125 g/ha,"barnyardgrass [4]; Echinochloa crus-galli, pre-emergence, 240 h, 125 g ai/ha, read-out: Plant response rating, Barnyardgrass",80%
same,pest or weed control at 500 g/ha,"barnyardgrass [4]; Echinochloa crus-galli, pre-emergence, 240 h, 500 g ai/ha, approx. 10 d, read-out: Plant response rating, Barnyardgrass",100%
same,pest or weed control at 125 g/ha,"foxtail, giant; Setaria faberi, pre-emergence, 240 h, 125 g ai/ha, read-out: Plant response rating, Foxtail, Giant",100%
same,pest or weed control at 500 g/ha,"foxtail, giant; Setaria faberi, pre-emergence, 240 h, 500 g ai/ha, approx. 10 d, read-out: Plant response rating, Foxtail, Giant",100%
same,Plant response rating (scale of 0 to 100 where 0 is no effect and 100 is complete control),"crabgrass, large; 16 g ai/ha",10
same,Plant response rating (scale of 0 to 100 where 0 is no effect and 100 is complete control),"crabgrass, large; 31 g ai/ha",10
same,Plant response rating (scale of 0 to 100 where 0 is no effect and 100 is complete control),"crabgrass, large; 62 g ai/ha",25
same,Plant response rating (scale of 0 to 100 where 0 is no effect and 100 is complete control),"crabgrass, large; 125 g ai/ha",25
same,Plant response rating (scale of 0 to 100 where 0 is no effect and 100 is complete control),pigweed; 16 g ai/ha,75
same,Plant response rating (scale of 0 to 100 where 0 is no effect and 100 is complete control),pigweed; 31 g ai/ha,85
same,Plant response rating (scale of 0 to 100 where 0 is no effect and 100 is complete control),pigweed; 62 g ai/ha,90
same,Plant response rating (scale of 0 to 100 where 0 is no effect and 100 is complete control),pigweed; 125 g ai/ha,85
same,pest or weed control at 125 g/ha,"ducksalad; Heteranthera limosa, 360 h, 125 g ai/ha, read-out: Plant response rating, Ducksalad, Flood",20%
same,Plant response rating (scale of 0 to 100 where 0 is no effect and 100 is complete control),johnsongrass; 16 g ai/ha,0
same,Plant response rating (scale of 0 to 100 where 0 is no effect and 100 is complete control),johnsongrass; 31 g ai/ha,5
same,Plant response rating (scale of 0 to 100 where 0 is no effect and 100 is complete control),johnsongrass; 62 g ai/ha,5
same,Plant response rating (scale of 0 to 100 where 0 is no effect and 100 is complete control),johnsongrass; 125 g ai/ha,10
FC(F)(F)COc1nc(-c2ccccc2)nn1Cc1ccnc(C(F)(F)F)c1 [Compound 24],Velvetleaf plant response rating (0 to 100),velvetleaf [1]; 31 g ai/ha,30
same,Velvetleaf plant response rating (0 to 100),velvetleaf [1]; 62 g ai/ha,45
same,Plant response rating (scale of 0 to 100 where 0 is no effect and 100 is complete control),velvetleaf [1],60
same,Plant response rating (scale of 0 to 100 where 0 is no effect and 100 is complete control),ragweed; 31 g ai/ha,65
same,Plant response rating (scale of 0 to 100 where 0 is no effect and 100 is complete control),ragweed; 62 g ai/ha,75
same,Plant response rating (scale of 0 to 100 where 0 is no effect and 100 is complete control),ragweed; 125 g ai/ha,75
same,Plant response rating (scale of 0 to 100 where 0 is no effect and 100 is complete control),ragweed; 250 g ai/ha,75
same,"Plant response rating, Corn",corn; 125 g ai/ha,20
same,"Plant response rating, Corn",corn; 500 g ai/ha,40
same,"Plant response rating, Barnyardgrass",barnyardgrass [2]; 125 g ai/ha,30
same,"Plant response rating, Barnyardgrass",barnyardgrass [2]; 500 g ai/ha,70
same,Plant response rating (scale of 0 to 100 where 0 is no effect and 100 is complete control),kochia; 31 g ai/ha,90
same,Plant response rating (scale of 0 to 100 where 0 is no effect and 100 is complete control),kochia; 62 g ai/ha,90
same,Plant response rating (scale of 0 to 100 where 0 is no effect and 100 is complete control),kochia; 125 g ai/ha,90
same,Plant response rating (scale of 0 to 100 where 0 is no effect and 100 is complete control),kochia; 250 g ai/ha,90
same,Plant response rating (scale of 0 to 100 where 0 is no effect and 100 is complete control),velvetleaf [3]; 31 g ai/ha,60
same,Plant response rating (scale of 0 to 100 where 0 is no effect and 100 is complete control),velvetleaf [3]; 62 g ai/ha,55
same,Plant response rating (scale of 0 to 100 where 0 is no effect and 100 is complete control),velvetleaf [3]; 125 g ai/ha,60
same,Plant response rating (scale of 0 to 100 where 0 is no effect and 100 is complete control),velvetleaf [3]; 250 g ai/ha,60
same,"Plant response rating, Rice, Flood",rice; 250 g ai/ha,0
same,Plant response rating (scale of 0 to 100 where 0 is no effect and 100 is complete control),morningglory; 31 g ai/ha,98
same,Plant response rating (scale of 0 to 100 where 0 is no effect and 100 is complete control),morningglory; 62 g ai/ha,98
same,Plant response rating (scale of 0 to 100 where 0 is no effect and 100 is complete control),morningglory; 125 g ai/ha,90
same,Plant response rating (scale of 0 to 100 where 0 is no effect and 100 is complete control),morningglory; 250 g ai/ha,95
same,"Plant response rating, Barnyardgrass",barnyardgrass [4]; 125 g ai/ha,50
same,"Plant response rating, Barnyardgrass","barnyardgrass [4]; 500 g ai/ha, approx. 10 d",90
same,"Plant response rating, Foxtail, Giant","foxtail, giant; 125 g ai/ha",100
same,"Plant response rating, Foxtail, Giant","foxtail, giant; 500 g ai/ha, approx. 10 d",100
same,Plant response rating (scale of 0 to 100 where 0 is no effect and 100 is complete control),"crabgrass, large; 31 g ai/ha",15
same,Plant response rating (scale of 0 to 100 where 0 is no effect and 100 is complete control),"crabgrass, large; 62 g ai/ha",10
same,Plant response rating (scale of 0 to 100 where 0 is no effect and 100 is complete control),"crabgrass, large; 125 g ai/ha",25
same,Plant response rating (scale of 0 to 100 where 0 is no effect and 100 is complete control),"crabgrass, large; 250 g ai/ha",35
same,Plant response rating (scale of 0 to 100 where 0 is no effect and 100 is complete control),pigweed; 31 g ai/ha,100
same,Plant response rating (scale of 0 to 100 where 0 is no effect and 100 is complete control),pigweed; 62 g ai/ha,100
same,Plant response rating (scale of 0 to 100 where 0 is no effect and 100 is complete control),pigweed; 125 g ai/ha,100
same,Plant response rating (scale of 0 to 100 where 0 is no effect and 100 is complete control),pigweed; 250 g ai/ha,100
same,"Plant response rating, Ducksalad, Flood",ducksalad; 250 g ai/ha,30
same,Plant response rating (scale of 0 to 100 where 0 is no effect and 100 is complete control),johnsongrass; 31 g ai/ha,10
same,Plant response rating (scale of 0 to 100 where 0 is no effect and 100 is complete control),johnsongrass; 62 g ai/ha,20
same,Plant response rating (scale of 0 to 100 where 0 is no effect and 100 is complete control),johnsongrass; 125 g ai/ha,10
same,Plant response rating (scale of 0 to 100 where 0 is no effect and 100 is complete control),johnsongrass; 250 g ai/ha,20
